Source: PubChem BioAssay AID1963835 (Molecular Pharmacology Branch, DTP, NCI, 2024)
Several values for one entry are separate records, joined by “and”; a condition that tells them apart may be missing. Equal entries are not always repeated.

Tested on: 699152-130-R-J1-PDC complex spheroid viability
Assay: Anticancer human tumor 699152-130-R-J1-PDC patient-derived pancreatic carcinoma cell line growth inhibition [POLQ]
Conditions: for viability, T/C: stronger effect = lower value; for IC50: curve of compound
Experimental: Multicellular complex tumor spheroid response to Polymerase (POL) inhibitors (novobiocin, ART-558, RP6685) in combination with a variety of drugs and investigational agents in selected tumor cell lines
The POL inhibitors (novobiocin, ART-558, and RP6685) were evaluated both individually and in combination with standard of care and investigational anticancer small molecules within a complex spheroid model of solid tumors. . Complex spheroids include a stromal component modeled by human endothelial cells (HUVEC) and fibroblasts modeled by human mesenchymal stem cells (MSCs). The concentration ranges selected for each drug and investigational agent were based upon clinically achievable concentrations if the clinical Cmax of the agent was known.
Compounds. The drugs and investigational agents: novobiocin (NSC847541), ART-558 (NSC835418), RP-6685 (NSC848927), peposertib (NSC802822), ceralasertib (NSC780249), elimusertib (NSC800525), camonsertib (NSC841442), AZD-1390 (NSC803789), olaparib (NSC753686), talazoparib (NSC767125), rucaparib (NSC756644), sotorasib (NSC818433), MRTX-1133 (NSC836407), SN-38 (NSC673596), topotecan (NSC609699), epotoside (NSC141540), doxorubicin (NSC123127), gemcitabine (NSC613327), 5-fluorouracil (NSC19893), paclitaxel (NSC125973), vemurafenib (NSC761431), MSA-2 (NSC828583), SN-011 (NSC837082), adavosertib (NSC754352), prexasertib (NSC758257), carboplatin (NSC241240) and oxaliplatin (NSC266046), were obtained from the National Cancer Institute (NCI) Developmental Therapeutics Program Chemical Repository (21). The FDA-approved anticancer drug set is available from the Developmental Therapeutics Program at https://dtp.cancer.gov/organization/dscb/obtaining/. […] The stock solutions were prepared in dimethyl sulfoxide (DMSO, Sigma-Aldrich, St. Louis, MO, cat. D2650), except for the platinum compounds which were prepared in saline (Quality Biological, Gaithersburg, MD, cat. 114-055-101), at 800-fold the tested concentration and stored at -70 degrees C prior to their use. All drugs and investigational agents were tested over a range starting from a high concentration at or near the clinical Cmax and decreasing in half-log increments. If the clinical Cmax for an agent had not been determined, the highest concentration tested was 10 microM, except for SN-38, which was tested at a high concentration of 1 microM.
Cell Culture. All cells were maintained in an incubator at 37 degrees C and 5% CO2 with 95% humidity. The PDC lines were cultured according to standard operating procedures established by the NCI PDMR (https://pdmr.cancer.gov). Table 3 of the manuscript, lists the cell lines along with the number of the three cell types plated to form the mct-spheroids and media for tumor cell growth. After thawing, all PDC lines, except 997537-175-T-J1-PDC and 415267-285-R-J2-PDC, were cultured in Matrigel-coated flasks prepared with a working solution of 1X Ham's F-12 nutrient mix, without supplementation (Thermo Fisher Scientific, cat. 11765054), 100 U/mL penicillin-streptomycin (Thermo Fisher Scientific, cat. 15140122), and 2.5% Matrigel (Corning Inc., Corning, NY, cat. 354248) for the first three passages. The two PDC lines 997537-175-T-J1-PDC and 415267-285-R-J2-PDC were cultured on uncoated flasks. The 857933-349-R-J2-PDC line was cultured in 6C/Colon 1B media containing advanced DMEM/F-12 (Thermo Fisher Scientific, cat. 12634028), 10 mM HEPES (Thermo Fisher Scientific, cat. 15630080), 1X GlutaMAX supplement (Thermo Fisher Scientific, cat. 35050061), 0.1 mg/mL primocin (InvivoGen, San Diego, CA, cat. ant-pm-2), 10% defined fetal bovine serum, heat inactivated (HyClone Laboratories Inc., Logan, UT, cat. SH30070.03HI), 50% L-WRN conditioned media (ATCC, cat. CRL-3276), 1.25 mM N-Acetyl-L-cysteine (Sigma-Aldrich, cat. A9165), 10 mM nicotinamide (Sigma-Aldrich, cat. N0636), 1X B-27 supplement (Thermo Fisher Scientific, cat. 17504044), 1X N-2 supplement (Thermo Fisher Scientific, cat. […]
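Note: spheroids exposed to agents for 7 days before viability reading.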
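Throughout, for viability, T/C: percent of DMSO vehicle control viability so 100% = vehicle and 0% = no viable signal.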

| Compound | viability, T/C (compound 0.0316 µM) | viability, T/C (compound 0.1 µM) | viability, T/C (compound 0.316 µM) | viability, T/C (compound 1 µM) | viability, T/C (compound 3.16 µM) | viability, T/C (compound 10 µM) | IC50 | viability, T/C (compound 0.00316 µM) | viability, T/C (compound 0.01 µM) | viability, T/C (compound 0.00949 µM) | viability, T/C (compound 0.03 µM) | viability, T/C (compound 0.0949 µM) | viability, T/C (compound 0.3 µM) | viability, T/C (compound 0.949 µM) | viability, T/C (compound 3 µM) | viability, T/C (compound 0.000316 µM) | viability, T/C (compound 0.001 µM) |
| --- | --- | --- | --- | --- | --- | --- | --- | --- | --- | --- | --- | --- | --- | --- | --- | --- | --- |
| C#Cc1c(F)ccc2cc(O)cc(-c3ncc4c(N5CC6CCC(C5)N6)nc(OCC56CCCN5CC(F)C6)nc4c3F)c12 (stereo unspecified) | 24.6% and 29.7% and 27.3% | 19.7% and 18.3% and 19.8% | 18.1% and 15.8% and 16.3% | 15% and 13.9% and 15.6% | 14.4% and 11.4% and 13.7% | 12.7% and 13.8% and 11% | < 31.6 nM | – | – | – | – | – | – | – | – | – | – |
| C=CC(=O)N1CCN(c2nc(=O)n(-c3c(C)ccnc3C(C)C)c3nc(-c4c(O)cccc4F)c(F)cc23)C(C)C1 (stereo unspecified) | 105% and 104% and 110% | 103% and 99.2% and 98% | 108% (2×) and 115% | 113% and 97.7% and 121% | 118% and 115% and 113% | 109% and 106% and 105% | > 10000 nM | – | – | – | – | – | – | – | – | – | – |
| C=CCn1c(=O)c2cnc(Nc3ccc(N4CCN(C)CC4)cc3)nc2n1-c1cccc(C(C)(C)O)n1 | 88.6% and 89.3% and 105% | 96.8% and 92.2% and 110% | 90.3% and 78.7% and 84.2% | 74.6% and 69.8% and 72.5% | – | – | > 1000 nM | 103% and 97% and 105% | 104% and 91.6% and 100% | – | – | – | – | – | – | – | – |
| CC(=O)O[C@H]1C(=O)[C@@]2(C)[C@H]([C@H](OC(=O)c3ccccc3)[C@]3(O)C[C@H](OC(=O)[C@H](O)[C@@H](NC(=O)c4ccccc4)c4ccccc4)C(C)=C1C3(C)C)[C@]1(OC(C)=O)CO[C@@H]1C[C@@H]2O | – | – | – | – | – | – | > 3000 nM | – | – | 71.7% and 80.5% and 82.2% | 56% and 69.6% and 61.2% | 54.2% and 56.2% and 58.5% | 62% and 62.2% and 59.9% | 66.9% and 69% and 60% | 70.2% and 72.3% and 64.6% | – | – |
| CC(C)n1c(=O)n(C)c2cnc3cc(F)c(-c4ccc(OCCCN5CCCCC5)nc4)cc3c21 | 93.3% and 103% and 119% | 88.1% and 91.7% and 92.8% | 98.6% and 105% and 99.7% | 110% and 102% and 97.5% | 96.3% and 110% and 87.4% | 87.1% and 91.8% and 85.5% | > 10000 nM | – | – | – | – | – | – | – | – | – | – |
| CC1COCCN1c1cc(-c2ccnn2C)c2ccnc(-c3ccn[nH]3)c2n1 (stereo unspecified) | 94.9% and 97.6% and 88.8% | 89.1% (2×) and 80.8% | 71.1% and 68.5% and 77.8% | 63.7% and 58.2% and 58.9% | 49% and 54.1% and 49.1% | 56.3% and 58.4% and 50.5% | > 10000 nM and 5900 nM | – | – | – | – | – | – | – | – | – | – |
| CC1COCCN1c1cc(C2(O)CC3CCC(C2)O3)c2cnn(-c3ccn[nH]3)c2n1 (stereo unspecified) | 85.2% and 93.5% and 88.1% | 80.7% and 83.5% and 80% | 65.9% and 63.9% and 67.3% | 56% and 53.3% and 57.5% | 47.1% and 48.7% and 44.4% | 35.8% and 33.2% and 36.5% | 1990 nM and 1720 nM and 1940 nM | – | – | – | – | – | – | – | – | – | – |
| CC1COCCN1c1cc(C2(S(C)(=N)=O)CC2)nc(-c2ccnc3[nH]ccc23)n1 (stereo unspecified) | 105% and 93.7% and 91.8% | 102% and 97.1% and 94.4% | 90.2% and 91.5% and 105% | 88.6% and 97.4% and 88.8% | 76% and 82.6% and 74% | 73.1% and 68.3% and 65.9% | > 10000 nM | – | – | – | – | – | – | – | – | – | – |
| CCCS(=O)(=O)Nc1ccc(F)c(C(=O)c2c[nH]c3ncc(-c4ccc(Cl)cc4)cc23)c1F | 109% and 96.3% and 112% | 112% and 102% and 110% | 129% and 120% and 116% | 158% and 156% and 128% | 187% and 182% and 192% | 34.7% and 43.6% and 56.4% | 8440 nM and 9190 nM and > 10000 nM | – | – | – | – | – | – | – | – | – | – |
| CC[C@@]1(O)C(=O)OCc2c1cc1n(c2=O)Cc2cc3c(CN(C)C)c(O)ccc3nc2-1 | 72.9% and 81.9% and 79.4% | 59.6% and 68.9% and 54.6% | – | – | – | – | > 100 nM | 98.8% and 105% and 99.5% | 94.2% and 111% and 93.4% | – | – | – | – | – | – | 93.1% and 110% and 102% | 97.6% and 90% and 108% |
| CCc1c2c(nc3ccc(O)cc13)-c1cc3c(c(=O)n1C2)COC(=O)[C@]3(O)CC | 55.4% and 52.2% and 41.7% | 45.9% and 44.3% and 37.6% | 24.9% and 35.3% and 28.6% | 7.27% and 9.92% and 8.91% | – | – | 47.1 nM and 38.3 nM and 19.1 nM | 79.8% and 73.5% and 71.1% | 59.2% and 56% and 49.9% | – | – | – | – | – | – | – | – |
| CCc1cc2c(N3CCc4c(cc(Cn5ccnc5)cc4-c4cn(C)nc4C(F)(F)F)C3=O)cc(C)nc2c(OC)n1 | 102% and 78.7% and 85.8% | 92.1% and 90.3% and 81.5% | 89.2% and 94.7% and 93.9% | 95.1% and 94.6% and 98.4% | 102% and 105% (2×) | 97% and 99% and 107% | > 10000 nM | – | – | – | – | – | – | – | – | – | – |
| CCc1cc2c(N3CCc4c(cc(Cn5ccnc5)cc4-c4cn(C)nc4C(F)(F)F)C3=O)ccnc2c(OC)n1 | 88.3% and 83.8% and 90.8% | 81.6% and 90.7% and 76.9% | 86.3% and 93.2% and 101% | 102% and 81.5% and 103% | 99.5% and 98.2% and 112% | 89% and 94.7% and 88.3% | > 10000 nM | – | – | – | – | – | – | – | – | – | – |
